The target in this assay is benzodiazepine site of the GABAA receptor. The assay can be described thus: Radioligand binding assay, 3H-Ro15-1788 (Flumazenil), purified rat cortical membranes. The conditions noted are these: previously determined; used in the Cheng-Prusoff equation; read-out: binding dissociation constant (Kd) of 3H-Ro15-1788.

Structures are written as SMILES.

One may read the Kd as the free concentration of one partner at which half of the binding sites on the other are occupied at equilibrium, for simple one-to-one binding. Regarding `CCOC(=O)c1ncn2c1CN(C)C(=O)c1cc(F)ccc1-2` [^3H-Ro15-1788], the Kd was determined as 1 nM.

The values above are taken from patent publication US20090023737A1, “Imidazo-Pyridazines, Triazolo-Pyridazines and Related Benzodiazepine Receptor Ligands” (NEUROGEN CORPORATION, priority 2004, published 2009).
